Assay: [Cp*Rh(bpy)(H2O)]2+ catalyzed reduction of FAD leading to hydrogen peroxide
Protocol: (§1) Hydrogen peroxide was determined enzymatically, based on the method by Saito et al.. Samples were mixed with a solution of 0.6 mM 4-amino antipyrine, 9 mM phenol, and 6 U×ml^−1 peroxidase from Coprinus cinereus. After one minute incubation at room temperature the absorption at 550 nm was measured.
0.2 mM [Cp*Rh(bpy)(H2O)]^2+, 0.05 mM FAD, and 1.16 μM StyA in. 50 mM potassium phosphate buffer with 150 mM sodium formate were incubated at 37° C. and agitation at 1500 rpm. At intervals samples were taken and analyzed for their hydrogen peroxide concentration. From the results a catalytic performance of 48 turnovers per hour for [Cp*Rh(bpy)(H2O)]^2+ was calculated.
In a second experiments a reaction mixture of this composition was supplemented with 2 mM styrene. After 15 min the reaction was stopped and analyzed for hydrogen peroxide and styrene oxide. 0.28 mM styrene oxide and […] were found at this time corresponding to an overall catalytic activity of [Cp*Rh(bpy)(H2O)]^2+ of 47 turnovers per hour.
as §1, with “peroxide produced” for “peroxide”, “enzymatically with a modified assay by” for “enzymatically, based on the”
0.2 mM [Cp*Rh(bpy)(H2O)]^2+, 0.225 mM FAD dissolved in O2 saturated potassium phosphate buffer were thermostated at 37° C. in an air-tight reaction vessel (O2-measurements: 2 ml, UV-measurements: 1 ml quartz kuvette). Reactions were started on addition of sodium formate stock solution (final concentration: 150 mM).
1 ml of 19 μM Cp*Rh(bpy)(H2O)]^2+ and 0-200 μM FAD in 50 mM potassium phosphate buffer (pH 7.0, c(NaHCO2)=150 mM) are placed in a 1.5 ml Eppendorf vial and incubated at 37° C. and agitation at 1500 rpm. At intervals […] samples are withdrawn and analyzed for their H2O2 content (FIG. 17).

## Cc1c(C)c(C)[c-](C)c1C.O.[Rh+3].c1ccc(-c2ccccn2)nc1 [[Cp*Rh(bpy)(H2O)]^2+]
0.2 mM [Cp*Rh(bpy)(H2O)]2+, 0.05 mM FAD, 1.16 μM StyA, 150 mM sodium formate, 37 °C, no styrene
  catalytic performance (hydrogen peroxide formation): 48 turnovers per hour
37 °C, c(NaHCO2) 0.15 M, 19 μM [Cp*Rh(bpy)(H2O)]2+, 0-200 μM FAD
  catalytic activities from initial H2O2-formation rates: 69.9±2.5 catalytic cycles per hour
As E39, supplemented with 2 mM styrene, after 15 min
  overall catalytic activity (hydrogen peroxide and styrene oxide): 47 turnovers per hour
